From ChEMBL document CHEMBL6103545, “Discovery of GS-2278, a Potent and Selective LPAR1 Antagonist for the Treatment of Idiopathic Pulmonary Fibrosis” (J Med Chem, 2025)
pEC50, pIC50: −log10 of the molar value.

What was measured:
[1] = biological target: T1, Lysophosphatidic acid receptor 1 (Homo sapiens, UniProt Q92633); experiment: Antagonist activity at human LPA1 receptor expressed in HEK293 cells assessed as Galpha15 effector recruitment incubated for 10 mins by BRET assay; format: functional, cell-based
[2] = biological target: Lysophosphatidic acid receptor 5 (Homo sapiens, UniProt Q9H1C0); experiment: Antagonist activity at human LPA5 receptor overexpressed in CHO cells pre-incubated for 1 hr followed by LPA addition by fluorescence based FLIPR calcium assay; format: functional, cell-based
Cytochrome P450 2D6 = Cytochrome P450 2D6 (Homo sapiens, UniProt P10635); experiment: Inhibition of CYP2D6 (unknown origin) using midazolam as substrate; format: ADME
BCRP (human) [3] = experiment: Apparent permeability from apical to basolateral side of human BCRP transfected MDCK cells measured after 20 min by LC/MS/MS analysis; format: ADME, cell-based, Canis lupus familiaris; settings: dog
[4] = Plasma protein binding in female CD-1 mouse assessed as unbound fraction at 2 uM incubated for 24 hrs by LC-MS analysis; format: ADME, cell-free
Cytochrome P450 2B6 = biological target: T2, Cytochrome P450 2B6 (Homo sapiens, UniProt P20813); experiment: Inhibition of CYP2B6 (unknown origin) using midazolam as substrate; format: ADME
T2 sequence (P20813 whole entry): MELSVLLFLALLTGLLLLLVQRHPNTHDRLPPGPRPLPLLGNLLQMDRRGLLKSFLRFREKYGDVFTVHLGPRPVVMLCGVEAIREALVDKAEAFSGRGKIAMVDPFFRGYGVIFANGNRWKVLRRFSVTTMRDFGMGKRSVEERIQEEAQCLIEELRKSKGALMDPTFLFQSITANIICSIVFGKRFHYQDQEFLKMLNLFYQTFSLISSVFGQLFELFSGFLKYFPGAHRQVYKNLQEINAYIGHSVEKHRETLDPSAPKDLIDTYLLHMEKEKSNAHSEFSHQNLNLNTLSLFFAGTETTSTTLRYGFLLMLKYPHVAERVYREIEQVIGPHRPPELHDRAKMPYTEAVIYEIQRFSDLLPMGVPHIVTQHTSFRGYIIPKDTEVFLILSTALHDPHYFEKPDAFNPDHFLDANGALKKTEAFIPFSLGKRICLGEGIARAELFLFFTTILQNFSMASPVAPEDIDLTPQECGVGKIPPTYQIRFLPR

Cytochrome P450 2C19 = Cytochrome P450 2C19 (Homo sapiens, UniProt P33261); experiment: Inhibition of CYP2C19 (unknown origin) using midazolam as substrate; format: ADME
[5] = AUC (0 to 24 hrs) in Beagle dog at 5 mg/kg, po measured after 24 hrs by LC/MS/MS analysis; format: ADME, organism-based, Canis lupus familiaris; settings: in vivo
[6] = Plasma protein binding in cynomolgus monkey assessed as unbound fraction at 2 uM incubated for 24 hrs by LC-MS analysis; format: ADME, cell-free, Macaca fascicularis
[7] = biological target: T1, Lysophosphatidic acid receptor 1; experiment: Antagonist activity at human LPA1 receptor expressed in HEK293 cells assessed as Galpha12 effector recruitment incubated for 10 mins by BRET assay; format: functional, cell-based
[8] = Volume of distribution in male Sprague-Dawley rat at 1 mg/kg, iv s measured after 24 hrs by LC/MS/MS analysis; format: ADME, organism-based; settings: in vivo
[9] = AUC (0 to 24 hrs) in male Sprague-Dawley rat at 5 mg/kg, po measured after 24 hrs by LC/MS/MS analysis; format: ADME, organism-based; settings: in vivo
[10] = Half-life in Beagle dog at 5 mg/kg, po measured after 24 hrs by LC/MS/MS analysis; format: ADME, organism-based, Canis lupus familiaris; settings: in vivo
[11] = Toxicity in Beagle dog CNS at 30 mg/kg/day, po measured after 7 days by radiotelemetry; format: organism-based, Canis lupus familiaris; settings: in vivo, 168 h, time 7 day
[12] = Plasma protein binding in human assessed as unbound fraction incubated for 24 hrs by equilibrium dialysis based Rapidfire-QToF mass spectrometric analysis; format: ADME, cell-free
[13] = Drug metabolism in female CD-1 mouse assessed as (R)-1-(2,5-Difluoropyridin-3-yl)ethyl (4-(5-Acetamidopyridin-2-yl)-1-methyl-1H-1,2,3-triazol-5-yl)carbamate metabolite formation at 1 uM by LC/MS/MS analysis; format: ADME
[14] = Apparent permeability from basolateral to apical side in human Caco-2 cells at 10 uM; format: ADME, cell-based
[15] = biological target: Voltage-gated inwardly rectifying potassium channel KCNH2 (Homo sapiens, UniProt Q12809); experiment: Inhibition of human ERG; format: toxicity
[16] = biological target: T1, Lysophosphatidic acid receptor 1; experiment: Antagonist activity at human LPA1 receptor overexpressed in CHO cells pre-incubated for 1 hr followed by LPA addition by fluorescence based FLIPR calcium assay; format: functional, cell-based
[17] = Toxicity in Beagle dog CNS at 20 mg/kg/day, po measured after 28 days by radiotelemetry; format: organism-based, Canis lupus familiaris; settings: in vivo, 672 h, time 28 day
[18] = Plasma protein binding in Beagle dog assessed as unbound fraction at 2 uM incubated for 24 hrs by LC-MS analysis; format: ADME, cell-free, Canis lupus familiaris
[19] = Oral bioavailability in cynomolgus monkey at 5 mg/kg measured after 24 hrs by LC/MS/MS analysis; format: ADME, organism-based, Macaca fascicularis; settings: in vivo
Bile salt export pump = Bile salt export pump (Homo sapiens, UniProt O95342); experiment: Inhibition of BSEP in human hepatocyte by LC-MS analysis; format: cell-based
BCRP (human) [20] = experiment: Apparent permeability from basolateral to apical side of human BCRP transfected MDCK cells measured after 20 min by LC/MS/MS analysis; format: ADME, cell-based, Canis lupus familiaris; settings: dog
[21] = Unbound drug concentration in CD-1 mouse brain at 2 uM incubated for 5 hrs by LC-MS analysis; format: ADME, tissue-based
[22] = Volume of distribution in Beagle dog at 1 mg/kg, iv measured after 24 hrs by LC/MS/MS analysis; format: ADME, organism-based, Canis lupus familiaris; settings: in vivo
[23] = Volume of distribution in cynomolgus monkey at 1 mg/kg, iv measured after 24 hrs by LC/MS/MS analysis; format: ADME, organism-based, Macaca fascicularis; settings: in vivo
[24] = biological target: T1, Lysophosphatidic acid receptor 1; experiment: Antagonist activity at LPA1 receptor in serum starved human Primary lung fibroblast cells pre-incubated for 1 hr followed by LPA stimulation and measured after 30 min by MRTF-A assay; format: cell-based
[25] = Metabolic stability in male Sprague-Dawley rat liver microsomes assessed as intrinsic clearance at 1 uM by LC/MS/MS analysis; format: ADME, Microsome; settings: read-out: CLH (converted)
[26] = Metabolic stability in Beagle dog liver microsomes assessed as intrinsic clearance at 1 uM by LC/MS/MS analysis; format: ADME, Canis lupus familiaris, Microsome; settings: read-out: CLH (converted)
Cytochrome P450 3A = Cytochrome P450 3A (Homo sapiens, UniProt P08684+P20815+Q9HB55+P24462); experiment: Inhibition of CYP3A (unknown origin) using midazolam as substrate; format: ADME, protein assay
[27] = biological target: T1, Lysophosphatidic acid receptor 1; experiment: Antagonist activity at human wild-type LPA1 receptor expressed in HEK293 cells assessed as internalization incubated for 30 mins by BRET assay; format: cell-based
[28] = Apparent permeability across apical to basolateral side in cMDR1 knockout MDCK-II cells incubated upto 240 mins by RF-QToF analysis; format: ADME, cell-based, Canis lupus familiaris; settings: dog
[29] = biological target: T1, Lysophosphatidic acid receptor 1; experiment: Antagonist activity at human LPA1 receptor expressed in HEK293 cells assessed as Galpha13 effector recruitment incubated for 10 mins by BRET assay; format: functional, cell-based
Cytochrome P450 2C9 = Cytochrome P450 2C9 (Homo sapiens, UniProt P11712); experiment: Inhibition of CYP2C9 (unknown origin) using midazolam as substrate; format: ADME
P-gp (human) = experiment: Apparent permeability from basolateral to apical side of human P-gp transfected MDCK cells measured after 20 min by LC/MS/MS analysis; format: ADME, cell-based, Canis lupus familiaris; settings: dog, MDCK-MDR1

T1 sequence (Q92633 whole entry): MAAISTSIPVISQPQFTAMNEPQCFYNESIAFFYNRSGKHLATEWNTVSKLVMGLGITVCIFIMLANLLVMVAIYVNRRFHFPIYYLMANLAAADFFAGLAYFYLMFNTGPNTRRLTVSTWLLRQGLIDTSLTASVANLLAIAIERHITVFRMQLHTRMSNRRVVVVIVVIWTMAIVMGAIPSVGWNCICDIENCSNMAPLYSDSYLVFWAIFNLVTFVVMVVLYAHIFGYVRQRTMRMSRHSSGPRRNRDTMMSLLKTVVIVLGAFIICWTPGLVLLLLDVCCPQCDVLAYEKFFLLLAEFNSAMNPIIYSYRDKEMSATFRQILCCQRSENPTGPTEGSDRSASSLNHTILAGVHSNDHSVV
Chain of Bile salt export pump (O95342 whole entry): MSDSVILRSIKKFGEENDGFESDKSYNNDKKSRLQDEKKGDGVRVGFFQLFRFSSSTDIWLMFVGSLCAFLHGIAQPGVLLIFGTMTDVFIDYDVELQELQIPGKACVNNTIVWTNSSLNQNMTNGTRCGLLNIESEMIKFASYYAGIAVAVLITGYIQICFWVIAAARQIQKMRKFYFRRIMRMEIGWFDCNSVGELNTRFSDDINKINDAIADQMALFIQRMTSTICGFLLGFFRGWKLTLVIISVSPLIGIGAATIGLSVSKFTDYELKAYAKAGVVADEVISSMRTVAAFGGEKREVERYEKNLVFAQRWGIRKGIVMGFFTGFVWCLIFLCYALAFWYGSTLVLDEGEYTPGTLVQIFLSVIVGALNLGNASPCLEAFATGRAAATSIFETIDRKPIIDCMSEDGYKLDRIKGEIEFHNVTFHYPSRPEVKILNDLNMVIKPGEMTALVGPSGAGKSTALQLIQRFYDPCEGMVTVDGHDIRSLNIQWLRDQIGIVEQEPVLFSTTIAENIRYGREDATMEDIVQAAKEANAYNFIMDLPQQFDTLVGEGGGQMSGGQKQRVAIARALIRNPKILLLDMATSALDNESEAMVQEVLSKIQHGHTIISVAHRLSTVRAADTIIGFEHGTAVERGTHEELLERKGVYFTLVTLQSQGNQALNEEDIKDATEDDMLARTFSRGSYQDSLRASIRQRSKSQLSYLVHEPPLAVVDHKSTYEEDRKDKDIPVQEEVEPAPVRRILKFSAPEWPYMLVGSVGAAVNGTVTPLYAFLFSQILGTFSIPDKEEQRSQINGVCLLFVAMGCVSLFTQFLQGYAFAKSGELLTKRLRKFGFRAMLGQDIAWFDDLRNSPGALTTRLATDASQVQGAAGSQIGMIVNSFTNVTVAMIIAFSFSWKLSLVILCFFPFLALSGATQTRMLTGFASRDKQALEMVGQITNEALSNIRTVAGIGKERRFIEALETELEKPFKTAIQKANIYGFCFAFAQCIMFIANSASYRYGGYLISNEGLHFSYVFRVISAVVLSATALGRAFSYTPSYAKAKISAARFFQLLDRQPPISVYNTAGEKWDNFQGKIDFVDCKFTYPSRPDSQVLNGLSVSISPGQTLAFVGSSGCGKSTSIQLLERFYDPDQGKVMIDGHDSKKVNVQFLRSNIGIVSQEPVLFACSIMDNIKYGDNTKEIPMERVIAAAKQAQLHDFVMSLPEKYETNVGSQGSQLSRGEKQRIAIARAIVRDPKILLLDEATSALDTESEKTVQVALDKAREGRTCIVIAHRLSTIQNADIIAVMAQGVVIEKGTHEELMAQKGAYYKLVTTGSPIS
Chain of Cytochrome P450 2C9 (P11712 whole entry): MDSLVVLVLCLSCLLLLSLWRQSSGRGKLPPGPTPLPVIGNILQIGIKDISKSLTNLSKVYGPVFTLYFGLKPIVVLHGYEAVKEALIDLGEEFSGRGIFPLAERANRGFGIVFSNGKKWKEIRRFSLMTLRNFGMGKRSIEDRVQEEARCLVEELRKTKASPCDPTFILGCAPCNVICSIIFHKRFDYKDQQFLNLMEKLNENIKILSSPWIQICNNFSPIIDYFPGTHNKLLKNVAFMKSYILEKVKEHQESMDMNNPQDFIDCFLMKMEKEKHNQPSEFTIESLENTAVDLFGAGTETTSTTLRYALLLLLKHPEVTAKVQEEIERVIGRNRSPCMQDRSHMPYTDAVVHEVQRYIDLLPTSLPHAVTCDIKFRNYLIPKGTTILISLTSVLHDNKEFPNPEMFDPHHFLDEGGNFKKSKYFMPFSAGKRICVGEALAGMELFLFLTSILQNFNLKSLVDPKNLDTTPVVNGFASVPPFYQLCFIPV
Chain of Lysophosphatidic acid receptor 5 (Q9H1C0 whole entry): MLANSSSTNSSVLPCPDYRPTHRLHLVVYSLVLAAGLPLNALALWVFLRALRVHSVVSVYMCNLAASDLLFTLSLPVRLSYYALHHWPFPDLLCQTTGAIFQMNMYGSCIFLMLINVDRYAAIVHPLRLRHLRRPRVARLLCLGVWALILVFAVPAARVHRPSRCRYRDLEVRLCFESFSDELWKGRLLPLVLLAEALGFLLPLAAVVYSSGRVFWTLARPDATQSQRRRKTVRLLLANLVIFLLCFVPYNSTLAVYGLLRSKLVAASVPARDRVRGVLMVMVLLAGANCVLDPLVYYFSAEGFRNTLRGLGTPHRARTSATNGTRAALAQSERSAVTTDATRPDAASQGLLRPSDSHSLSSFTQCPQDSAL
Chain of Cytochrome P450 2C19 (P33261 whole entry): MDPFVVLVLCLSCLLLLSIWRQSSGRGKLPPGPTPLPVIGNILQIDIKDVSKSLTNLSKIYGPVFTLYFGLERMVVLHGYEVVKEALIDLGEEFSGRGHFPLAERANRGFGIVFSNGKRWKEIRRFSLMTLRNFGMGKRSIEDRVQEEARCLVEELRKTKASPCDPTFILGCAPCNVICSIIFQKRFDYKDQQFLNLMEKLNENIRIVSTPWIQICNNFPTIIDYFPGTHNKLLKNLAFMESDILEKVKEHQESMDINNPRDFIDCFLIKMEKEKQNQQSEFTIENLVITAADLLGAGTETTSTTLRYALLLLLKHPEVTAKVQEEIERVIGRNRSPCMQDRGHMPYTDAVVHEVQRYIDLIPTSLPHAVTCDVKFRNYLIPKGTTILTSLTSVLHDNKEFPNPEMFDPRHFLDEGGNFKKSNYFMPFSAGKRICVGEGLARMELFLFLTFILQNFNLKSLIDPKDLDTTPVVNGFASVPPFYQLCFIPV
Chain of Voltage-gated inwardly rectifying potassium channel KCNH2 (Q12809 whole entry): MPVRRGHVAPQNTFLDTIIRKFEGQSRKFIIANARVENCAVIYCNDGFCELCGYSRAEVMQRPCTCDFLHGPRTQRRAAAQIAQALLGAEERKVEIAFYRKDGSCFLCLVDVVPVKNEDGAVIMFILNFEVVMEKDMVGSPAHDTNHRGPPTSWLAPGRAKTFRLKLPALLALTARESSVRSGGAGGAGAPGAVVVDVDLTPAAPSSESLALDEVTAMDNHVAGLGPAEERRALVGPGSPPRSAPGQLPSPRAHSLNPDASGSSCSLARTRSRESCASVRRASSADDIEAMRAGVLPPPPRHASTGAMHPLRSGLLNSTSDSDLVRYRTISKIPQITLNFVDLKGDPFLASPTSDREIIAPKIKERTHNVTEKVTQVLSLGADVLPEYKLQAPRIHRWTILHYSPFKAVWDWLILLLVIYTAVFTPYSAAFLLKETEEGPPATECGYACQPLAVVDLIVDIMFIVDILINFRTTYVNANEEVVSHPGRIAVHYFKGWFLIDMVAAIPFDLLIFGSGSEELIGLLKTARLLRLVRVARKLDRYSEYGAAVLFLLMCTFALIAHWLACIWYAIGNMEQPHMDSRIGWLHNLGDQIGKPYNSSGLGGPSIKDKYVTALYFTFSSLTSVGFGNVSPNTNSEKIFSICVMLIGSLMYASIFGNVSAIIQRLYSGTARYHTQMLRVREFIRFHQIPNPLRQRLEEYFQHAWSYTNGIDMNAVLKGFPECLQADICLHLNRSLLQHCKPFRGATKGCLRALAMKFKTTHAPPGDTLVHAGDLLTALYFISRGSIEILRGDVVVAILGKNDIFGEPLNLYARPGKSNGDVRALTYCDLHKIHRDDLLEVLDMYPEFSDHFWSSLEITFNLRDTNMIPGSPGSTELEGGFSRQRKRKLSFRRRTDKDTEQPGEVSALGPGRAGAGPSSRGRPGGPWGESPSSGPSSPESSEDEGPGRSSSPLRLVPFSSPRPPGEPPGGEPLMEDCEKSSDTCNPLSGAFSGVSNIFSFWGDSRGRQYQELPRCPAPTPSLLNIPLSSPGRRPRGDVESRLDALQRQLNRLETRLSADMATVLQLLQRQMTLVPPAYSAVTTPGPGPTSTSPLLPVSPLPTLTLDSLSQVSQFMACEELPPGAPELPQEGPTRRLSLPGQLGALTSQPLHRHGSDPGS
Chain of Cytochrome P450 2D6 (P10635 whole entry): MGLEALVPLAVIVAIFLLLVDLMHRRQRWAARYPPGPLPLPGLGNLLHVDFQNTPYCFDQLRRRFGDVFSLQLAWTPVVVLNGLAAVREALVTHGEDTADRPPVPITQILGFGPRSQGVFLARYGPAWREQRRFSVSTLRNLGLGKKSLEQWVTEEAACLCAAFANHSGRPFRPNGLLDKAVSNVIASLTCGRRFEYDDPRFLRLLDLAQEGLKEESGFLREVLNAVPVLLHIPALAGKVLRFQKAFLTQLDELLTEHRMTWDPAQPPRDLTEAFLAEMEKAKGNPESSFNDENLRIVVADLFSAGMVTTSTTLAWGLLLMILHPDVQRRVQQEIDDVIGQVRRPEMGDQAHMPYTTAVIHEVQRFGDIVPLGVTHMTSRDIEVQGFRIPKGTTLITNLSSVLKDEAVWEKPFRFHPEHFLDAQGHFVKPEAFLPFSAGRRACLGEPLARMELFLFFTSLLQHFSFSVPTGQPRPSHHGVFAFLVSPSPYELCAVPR

In the case of `C[C@@H](OC(=O)Nc1c(-c2ccc(NC(=O)c3cnc(C(F)(F)F)nc3)cn2)nnn1C)c1cc(F)cnc1F`, the pEC50 [1] was 7.34, the pEC50 [2] was < 5.00 and the “inhibition (INH)” value (Cytochrome P450 2D6) was “Not_active”. For the same molecule, the Papp A→B at 20 min (BCRP (human) [3]) was < 0.01 ×10⁻⁶ cm/s, the fraction unbound at 24 h, 2 µM [4] was 0.066 and the “inhibition (INH)” value (Cytochrome P450 2B6) was “Not_active”. For the same molecule, the “inhibition (INH)” value (Cytochrome P450 2C19) was “Not_active”, the AUC(0-t) at 24 h [5] was 54 µM·h and the fraction unbound at 24 h, 2 µM [6] was 0.24. For the same molecule, the pEC50 [7] was 6.97, the Vd [8] was 0.8 L/kg and the AUC(0-t) at 24 h [9] was 5.1 µM·h. For the same molecule, the half-life [10] was 2.9 h, the Activity [11] was “Non-toxic” and the fraction unbound at 24 h [12] was 0.19. The Drug metabolism [13] was “metabolite_detected”, the Papp B→A at 10 µM [14] was 17 ×10⁻⁶ cm/s and the pIC50 [15] was < 4.52. The pEC50 [16] was 7.42, the Activity [17] was “Non-toxic” and the fraction unbound at 24 h, 2 µM [18] was 0.095. The bioavailability [19] was 43%, the pIC50 (Bile salt export pump) was 4.66 and the Papp B→A at 20 min (BCRP (human) [20]) was 12 ×10⁻⁶ cm/s. The fraction unbound at 5 h, 2 µM [21] was 0.133, the Vd [22] was 0.4 L/kg and the Vd [23] was 0.8 L/kg. For the same molecule, the pEC50 [24] was 8.10, the CLint scaled at 1 µM [25] was 16.3 mL/min/kg and the CLint scaled at 1 µM [26] was 1.5 mL/min/kg. For the same molecule, the “inhibition (INH)” value (Cytochrome P450 3A) was “Not_active”, the pEC50 [27] was 7.93 and the Papp A→B at 4 h [28] was 11 ×10⁻⁶ cm/s. For the same molecule, the pEC50 [29] was 7.15, the “inhibition (INH)” value (Cytochrome P450 2C9) was “Not_active” and the Papp B→A at 20 min (P-gp (human)) was 11 ×10⁻⁶ cm/s.
